Measured values taken from patent US20080160509A1, “ASSAYS FOR PREDICTING AND ASSESSING PREDISPOSITION TO MALE PATTERN BALDNESS” (priority 2006, published 2008).

Legend:
[1] = biological target: sex hormone binding globulin (SHBG) (Homo sapiens, UniProt P04278); conditions: ratio versus testosterone; cited from earlier work
[2] = tested on: bald subject (Norwood Level VII); test: Antiviral agent and hair growth study in a bald subject; assay type: in vivo, human
From the text: A bald subject (Norwood Level VII) who routinely gets fever blisters volunteered to take place in a study to see if the topical application and oral consumption of antiviral drugs would result in hair growth. The individual lacks any hairs on the top of their head. The participant was instructed to cleanse their scalp twice daily with a liquid cleanser using a sonic skincare brush (Clarisonic®). After cleansing topical acyclovir (5%) was applied. The subject is not a candidate for any of the FDA-approved hair loss medications because of a lack of vellus hairs.
After approximately four weeks of treatment, the participant was given valacyclovir (500 mg) instead of oral acyclovir because of potential acyclovir resistance. In addition, the concentration of topical acyclovir was increased to 10%.
The fact that vellus hair formation occurred and converted to pigmented hairs is highly unexpected in a participant with Norwood Level VII baldness.

sex hormone binding globulin (SHBG), sequence (P04278 30-402): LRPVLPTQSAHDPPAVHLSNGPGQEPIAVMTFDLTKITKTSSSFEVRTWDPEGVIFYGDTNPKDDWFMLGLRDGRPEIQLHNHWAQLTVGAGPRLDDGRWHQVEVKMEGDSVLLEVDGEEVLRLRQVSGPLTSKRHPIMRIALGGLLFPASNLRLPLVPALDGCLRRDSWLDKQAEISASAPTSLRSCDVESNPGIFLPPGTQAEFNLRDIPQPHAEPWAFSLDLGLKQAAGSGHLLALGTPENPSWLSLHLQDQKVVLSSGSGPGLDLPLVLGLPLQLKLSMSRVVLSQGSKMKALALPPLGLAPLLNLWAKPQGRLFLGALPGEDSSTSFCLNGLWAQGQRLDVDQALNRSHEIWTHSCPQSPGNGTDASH

C[C@]12CCC(=O)C[C@@H]1CC[C@@H]1[C@@H]2CC[C@]2(C)[C@@H](O)CC[C@@H]12 [DHT, 5α-dihydrotestosterone]
binding affinity for SHBG relative to testosterone [1]: at least three times

Nc1nc2c(ncn2COCCO)c(=O)[nH]1 [acyclovir]
conversion of vellus hairs to pigmented hairs ([2]; after 16 weeks of treatment, topical acyclovir 10% plus oral valacyclovir (500 mg)): some of the vellus hairs converted to pigmented hairs | hair lengthening ([2]; after 20 weeks, topical acyclovir 10% plus oral valacyclovir (500 mg)): pigmented and unpigmented vellus hairs continued to lengthen | hair growth on scalp ([2]; at 12 weeks, topical acyclovir increased to 10% plus oral valacyclovir (500 mg) from about week 4): long, unpigmented vellus hairs were visible on the scalp | oral lesions ([2]; human, in vivo): marked increase in oral lesions | hair growth on scalp noted by participant ([2]; topical acyclovir (5%) after twice daily scalp cleansing, after two weeks of treatment, one person, Norwood Level VII): small vellus hairs
